Test systems include HOP-18; CCRF-CEM; CAKI-1; SK-OV-3; NCI-H460; UACC-257; RPMI-8226; M14; SK-MEL-28; HCT-15; U-251; DLD-1; COLO 205; LOX IMVI; OVCAR-4; HL-60; SW-620; NCI-H23; SNB-19; KM-20L2.
What all share (assay): NCI anticancer screen, dose series, 48 h

Data on 1 molecule can be found in ChEMBL document CHEMBL1201862, “PubChem BioAssay data set” (2004).

Molecules are shown by their SMILES.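 Briefly, cells in 96-well plates were exposed to five compound concentrations for 48 h, and endpoints were estimated by linear interpolation. Abbreviation: GI50, concentration required for 50% inhibition of growth.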 The source made the active and inactive calls. Cut-off read from the data, not from the text of the source: active = GI50 up to about 1.1 µM and inactive = higher.

Consider `O=C(O)C(Cl)(Cl)Cl`, for which the GI50 in the assay on HOP-18 is 80 µM (inactive); in the assay with CCRF-CEM, > 100 µM (inactive); in the assay on CAKI-1 it was > 100 µM (inactive); in the assay on SK-OV-3, > 100 µM (inactive); with NCI-H460, > 100 µM (inactive); in the assay on UACC-257, > 100 µM (inactive). Also, the GI50 in the assay on RPMI-8226 was > 100 µM (inactive); in the assay on M14 it was > 100 µM (inactive); with SK-MEL-28 it was > 100 µM (inactive); in the assay with HCT-15 it was more than 100 µM; in the assay on U-251 it was > 100 µM (inactive); in the assay on DLD-1, > 100 µM (inactive). Moreover, the GI50 in the assay with COLO 205, in the assay with LOX IMVI, in the assay on OVCAR-4, in the assay on HL-60, with SW-620 and in the assay with NCI-H23 was > 100 µM (inactive) each time. In addition, the GI50 with SNB-19 and in the assay on KM-20L2 was > 100 µM (inactive) in each case.
